assay: Reversal of Pgp-mediated DOX resistance in human SW620/AD300 cells assessed as concentration required to show half of DOX IC50 incubated for 48 hrs by SRB assay

Q: With COc1cc2c(cc1OC)CN(CCc1ccc(NC(=O)/C=C/c3ccc(Oc4ccc(-c5cccnc5)cc4)nc3)cc1)CC2 as the molecule, how does the EC50 read?
A: 0.103 µM

Q: For COc1cc2c(cc1OC)CN(CCc1ccc(NC(=O)/C=C/c3ccc(Oc4ccc(-c5ccccn5)c(Cl)c4)nc3)cc1)CC2, which EC50 is on record?
A: 0.037 µM

Q: For COc1cc2c(cc1OC)CN(CCc1ccc(NC(=O)/C=C/c3ccc(Oc4ccc(-c5ccccn5)c(C#N)c4)nc3)cc1)CC2, which EC50 is on record?
A: 0.051 µM

assay: Reversal of Pgp-mediated DOX resistance in human SW620/AD300 cells assessed as potentiation of DOX-induced cytotoxicity by measuring DOX IC50 at 1 uM incubated for 48 hrs by SRB assay (Rvb = 33.39 +/- 7.08 uM)

Q: For COc1cc2c(cc1OC)CN(CCc1ccc(NC(=O)/C=C/c3c(-c4ccccc4)n(C)c4ncccc34)cc1)CC2, which IC50 is on record?
A: 0.82 µM

Q: For COc1cc2c(cc1OC)CN(CCc1ccc(NC(=O)C(O)c3c(-c4ccccc4)n(C)c4ccccc34)cc1)CC2 (configuration not stated), which IC50 is on record?
A: 1.1 µM

Q: With COc1cc2c(cc1OC)CN(CCc1ccc(NC(=O)C(c3c(-c4ccccc4)n(C)c4ccccc34)N3CCOCC3)cc1)CC2 (configuration not stated) as the molecule, how does the IC50 read?
A: 0.55 µM

Q: With COc1cc2c(cc1OC)CN(CCc1ccc(NC(=O)/C=C/c3c(-c4ccccc4)oc4ccccc4c3=O)cc1)CC2 as the molecule, how does the IC50 read?
A: 1.36 µM

Q: For COc1ccc2c(C)c(CC(=O)Nc3ccc(CCN4CCc5cc(OC)c(OC)cc5C4)cc3)c(=O)oc2c1, which IC50 is on record?
A: 1.97 µM

Q: For COc1cc2c(cc1OC)CN(CCc1ccc(NC(=O)/C=C/c3cc(-c4ccccn4)cc(C)c3Oc3ccccn3)cc1)CC2, which IC50 is on record?
A: 0.55 µM

Q: For COc1cc2c(cc1OC)CN(CCc1ccc(NC(=O)/C=C/c3cccc(Oc4ccc(-c5ccccn5)cc4)n3)cc1)CC2, which IC50 is on record?
A: 0.99 µM

Q: For COc1cc2c(cc1OC)CN(CCc1ccc(NC(=O)/C=C/c3ccc(Oc4ccc(-c5cccnc5)cc4)nc3)cc1)CC2, which IC50 is on record?
A: 0.39 µM

Q: For COc1cc2c(cc1OC)CN(CCc1ccc(NC(=O)/C=C/c3ccc(Oc4cccc(-c5ccccn5)c4)nc3)cc1)CC2, which IC50 is on record?
A: 0.75 µM

Q: Which IC50 does the source give for COc1cc2c(cc1OC)CN(CCc1ccc(NC(=O)C3CC3c3ccc(Oc4ccc(-c5ccccn5)cc4)nc3)cc1)CC2 (configuration not stated) here?
A: 0.76 µM

Q: For COc1cc2c(cc1OC)CN(CCc1ccc(NC(=O)/C=C/c3ccc(Oc4ccc(-c5ccccn5)cc4C)nc3)cc1)CC2, which IC50 is on record?
A: 0.74 µM

Q: With COc1cc2c(cc1OC)CN(CCc1ccc(NC(=O)/C=C/c3ccc(Oc4ccc(-c5ccccn5)c(Cl)c4)nc3)cc1)CC2 as the molecule, how does the IC50 read?
A: 0.56 µM

Q: For COc1cc2c(cc1OC)CN(CCc1ccc(NC(=O)/C=C/c3ccc(Oc4ccc(-c5ccccn5)c(O)c4)nc3)cc1)CC2, which IC50 is on record?
A: 0.82 µM

Q: With COc1cc2c(cc1OC)CN(CCc1ccc(NC(=O)/C=C/c3ccc(Oc4cc(O)c(-c5ccccn5)c(O)c4)nc3)cc1)CC2 as the molecule, how does the IC50 read?
A: 0.78 µM

Q: With COc1cc2c(cc1OC)CN(CCc1ccc(NC(=O)/C=C/c3ccc(Oc4c(I)cc(-c5ccccn5)cc4I)nc3)cc1)CC2 as the molecule, how does the IC50 read?
A: 1.18 µM

Q: With COc1cc2c(cc1OC)CN(CCc1ccc(NC(=O)/C=C/c3ccc(Oc4ccc(-c5ccccn5)cc4I)nc3)cc1)CC2 as the molecule, how does the IC50 read?
A: 0.76 µM

Q: With COc1cc2c(cc1OC)CN(CCc1ccc(NC(=O)/C=C/c3ccc(Oc4ccc(-c5ccccn5)cc4Br)nc3)cc1)CC2 as the molecule, how does the IC50 read?
A: 0.7 µM

Q: With COc1cc2c(cc1OC)CN(CCc1ccc(NC(=O)/C=C/c3ccc(Oc4ccc(-c5ccccn5)c(C#N)c4)nc3)cc1)CC2 as the molecule, how does the IC50 read?
A: 0.61 µM

Q: With COc1cc2c(cc1OC)CN(CCc1ccc(NC(=O)/C=C/c3ccc(Oc4ccc(-c5ccccn5)c(C)c4)nc3)cc1)CC2 as the molecule, how does the IC50 read?
A: 0.49 µM

Reference: BindingDB's records for doi:10.1021/acs.jmedchem.0c00337 (Peking Union Medical College, 2020)
